Test results as given in patent publication US12410262B2, “Peptide conjugates of cytotoxins as therapeutics” (Cybrexa 2, Inc., priority 2019, dated 2025).
Read-outs that look alike come from different tables or passages of the source. Residues, ends and D or L forms follow the SMILES beside them. *: point of attachment. X2 = CC[C@@]1(O)C(=O)OCc2c1cc1n(c2=O)Cc2c-1nc1cc(F)c(C)c3c1c2[C@@H](NC(=O)O[C@H](C)[C@@H](C)S*)CC3; X4 = CC[C@@]1(O)C(=O)OCc2c1cc1n(c2=O)Cc2c-1nc1cc(F)c(C)c3c1c2[C@@H](NC(=O)O[C@@H](C)[C@H](C)S*)CC3; X1 = CC[C@@]1(O)C(=O)OCc2c1cc1n(c2=O)Cc2c-1nc1cc(F)c(C)c3c1c2[C@@H](NC(=O)O[C@H](C)[C@H](C)S*)CC3; X6 = CC[C@@]1(O)C(=O)OCc2c1cc1n(c2=O)Cc2c-1nc1cc(F)c(C)c3c1c2[C@@H](NC(=O)OCC1(S*)CCC1)CC3

What was measured:
Test in all cases: cells
DLD-1 WT cells = format: cell-based
Method: (§1) Cells were plated in 96 well black walled-clear bottom plates (Griener), DLD-1 WT cells at 2500 cells per well, FaDu, and HeLa cells at 5000 cells per well, and HCT116 at 3000 cells per well, in growth media containing 10% FBS. Cells were allowed to adhere at room temperature for 60 minutes before returning to a 37 C, 5% CO2 incubator. After 24 hours, media was removed and replaced with fresh growth media containing various drug concentrations. Each drug concentration was added in triplicate. Non-drug treated controls contained growth media only. Cells were returned to the incubator. Ninety-six hours after addition of drug, cells were fixed with 4% paraformaldehyde for 20 minutes and stained with Hoechst at 1 ug/mL. The plates were imaged on a Cytation 5 auto imager (BioTek) and cells were counted using CellProfiler (http://cellprofiler.org). The percent cell growth delay was calculated and data plotted using GraphPad Prism

FaDu = format: cell-based
Method: as §1

HeLa cells = format: cell-based
Method: as §1

HCT116 = format: cell-based, human
Outline: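 DLD-1 WT (2500/well), FaDu and HeLa (5000/well) and HCT116 (3000/well) were grown in 10% FBS media and dosed in triplicate 24 h after plating. After 96 h of drug exposure at 37 °C, cells were fixed, Hoechst-stained and counted by imaging; percent growth delay was calculated versus untreated controls.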

SMILES: CC[C@H](C)[C@H](NC(=O)[C@@H]1CCCN1C(=O)[C@H](CC(N)=O)NC(=O)[C@H](CCC(N)=O)NC(=O)[C@H](CCC(=O)O)NC(=O)[C@H](C)N)C(=O)N[C@@H](Cc1ccc(O)cc1)C(=O)N[C@@H](Cc1c[nH]c2ccccc12)C(=O)N[C@@H](C)C(=O)N[C@@H](CCCNC(=N)N)C(=O)N[C@@H](Cc1ccc(O)cc1)C(=O)N[C@@H](C)C(=O)N[C@@H](CC(=O)O)C(=O)N[C@@H](Cc1c[nH]c2ccccc12)C(=O)N[C@@H](CC(C)C)C(=O)N[C@@H](Cc1ccccc1)C(=O)N[C@H](C(=O)N[C@H](C(=O)N1CCC[C@H]1C(=O)N[C@@H](CC(C)C)C(=O)N[C@@H](CC(C)C)C(=O)N[C@@H](CC(C)C)C(=O)N[C@@H](CC(C)C)C(=O)N[C@@H](CC(=O)O)C(=O)N[C@@H](CC(C)C)C(=O)N[C@@H](C)C(=O)N[C@@H](CC(C)C)C(=O)N[C@@H](CC(C)C)C(=O)N[C@H](C(=O)N[C@@H](CC(=O)O)C(=O)N[C@@H](C)C(=O)N[C@@H](CC(=O)O)C(=O)N[C@@H](CCC(=O)O)C(=O)N[C@@H](CSS[C@H](C)[C@@H](C)OC(=O)N[C@H]1CCc2c(C)c(F)cc3nc4c(c1c23)Cn1c-4cc2c(c1=O)COC(=O)[C@]2(O)CC)C(=O)NCC(=O)O)C(C)C)[C@@H](C)O)[C@@H](C)O [Compound 4] (H-AEQNPIYWARYADWLFTTPLLLLDLALLVDADEC(X2)G-OH; N-terminus and C-terminus assumed)
- IC50 (DLD-1 WT cells; 96 h): 0.8 nM
- IC50 (FaDu; 96 h): 0.06 nM
- IC50 (HeLa cells; 96 h): 0.07 nM
- IC50 (HCT116; 96 h): 0.1 nM

SMILES: CC[C@H](C)[C@H](NC(=O)[C@@H]1CCCN1C(=O)[C@H](CC(N)=O)NC(=O)[C@H](CCC(N)=O)NC(=O)[C@H](CCC(=O)O)NC(=O)[C@H](C)N)C(=O)N[C@@H](Cc1ccc(O)cc1)C(=O)N[C@@H](Cc1c[nH]c2ccccc12)C(=O)N[C@@H](C)C(=O)N[C@@H](CCCNC(=N)N)C(=O)N[C@@H](Cc1ccc(O)cc1)C(=O)N[C@@H](C)C(=O)N[C@@H](CC(=O)O)C(=O)N[C@@H](Cc1c[nH]c2ccccc12)C(=O)N[C@@H](CC(C)C)C(=O)N[C@@H](Cc1ccccc1)C(=O)N[C@H](C(=O)N[C@H](C(=O)N1CCC[C@H]1C(=O)N[C@@H](CC(C)C)C(=O)N[C@@H](CC(C)C)C(=O)N[C@@H](CC(C)C)C(=O)N[C@@H](CC(C)C)C(=O)N[C@@H](CC(=O)O)C(=O)N[C@@H](CC(C)C)C(=O)N[C@@H](C)C(=O)N[C@@H](CC(C)C)C(=O)N[C@@H](CC(C)C)C(=O)N[C@H](C(=O)N[C@@H](CC(=O)O)C(=O)N[C@@H](C)C(=O)N[C@@H](CC(=O)O)C(=O)N[C@@H](CCC(=O)O)C(=O)N[C@@H](CSS[C@@H](C)[C@H](C)OC(=O)N[C@H]1CCc2c(C)c(F)cc3nc4c(c1c23)Cn1c-4cc2c(c1=O)COC(=O)[C@]2(O)CC)C(=O)NCC(=O)O)C(C)C)[C@@H](C)O)[C@@H](C)O [Compound 5] (H-AEQNPIYWARYADWLFTTPLLLLDLALLVDADEC(X4)G-OH; N-terminus and C-terminus assumed)
- IC50 (DLD-1 WT cells; 96 h): 0.83 nM
- IC50 (FaDu; 96 h): 0.06 nM
- IC50 (HeLa cells; 96 h): 0.07 nM
- IC50 (HCT116; 96 h): 0.12 nM

SMILES: CC[C@H](C)[C@H](NC(=O)[C@@H]1CCCN1C(=O)[C@H](CC(N)=O)NC(=O)[C@H](CCC(N)=O)NC(=O)[C@H](CCC(=O)O)NC(=O)[C@H](C)N)C(=O)N[C@@H](Cc1ccc(O)cc1)C(=O)N[C@@H](Cc1c[nH]c2ccccc12)C(=O)N[C@@H](C)C(=O)N[C@@H](CCCNC(=N)N)C(=O)N[C@@H](Cc1ccc(O)cc1)C(=O)N[C@@H](C)C(=O)N[C@@H](CC(=O)O)C(=O)N[C@@H](Cc1c[nH]c2ccccc12)C(=O)N[C@@H](CC(C)C)C(=O)N[C@@H](Cc1ccccc1)C(=O)N[C@H](C(=O)N[C@H](C(=O)N1CCC[C@H]1C(=O)N[C@@H](CC(C)C)C(=O)N[C@@H](CC(C)C)C(=O)N[C@@H](CC(C)C)C(=O)N[C@@H](CC(C)C)C(=O)N[C@@H](CC(=O)O)C(=O)N[C@@H](CC(C)C)C(=O)N[C@@H](C)C(=O)N[C@@H](CC(C)C)C(=O)N[C@@H](CC(C)C)C(=O)N[C@H](C(=O)N[C@@H](CC(=O)O)C(=O)N[C@@H](C)C(=O)N[C@@H](CC(=O)O)C(=O)N[C@@H](CCC(=O)O)C(=O)N[C@@H](CSS[C@@H](C)[C@@H](C)OC(=O)N[C@H]1CCc2c(C)c(F)cc3nc4c(c1c23)Cn1c-4cc2c(c1=O)COC(=O)[C@]2(O)CC)C(=O)NCC(=O)O)C(C)C)[C@@H](C)O)[C@@H](C)O [Compound 6] (H-AEQNPIYWARYADWLFTTPLLLLDLALLVDADEC(X1)G-OH; N-terminus and C-terminus assumed)
- IC50 (DLD-1 WT cells; 96 h): 13.9 nM
- IC50 (FaDu; 96 h): 0.76 nM
- IC50 (HeLa cells; 96 h): 0.62 nM
- IC50 (HCT116; 96 h): 1 nM

SMILES: CC[C@@]1(O)C(=O)OCc2c1cc1n(c2=O)Cc2c-1nc1cc(F)c(C)c3c1c2[C@@H](N)CC3 [R^8H-5, (10S,23S)-23-amino-10-ethyl-18-fluoro-10-hydroxy-19-methyl-8-oxa-4,15-diazahexacyclo[14.7.1.02,14.04,13.06,11.020,24]tetracosa-1,6(11),12,14,16(24),17,19-heptaene-5,9-dione; methanesulfonic acid, reference compound]
- IC50 (DLD-1 WT cells; Homo sapiens, DLD-1 WT cells, 96 h after addition of drug, IC = incomplete curve, read-out: DLD-1 (IC50)): 0.13 nM
- IC50 (FaDu; Homo sapiens, FaDu cells, 96 h after addition of drug, read-out: FaDu (IC50)): 0.04 nM
- IC50 (HeLa cells; Homo sapiens, HeLa cells, 96 h after addition of drug, read-out: HeLa (IC50)): 0.12 nM
- IC50 (HCT116; Homo sapiens, HCT-116, HCT116 cells, 96 h after addition of drug, read-out: HCT116 (IC50)): 0.05 nM

SMILES: CC[C@H](C)[C@H](NC(=O)[C@@H]1CCCN1C(=O)[C@H](CC(N)=O)NC(=O)[C@H](CCC(N)=O)NC(=O)[C@H](CCC(=O)O)NC(=O)[C@H](C)N)C(=O)N[C@@H](Cc1ccc(O)cc1)C(=O)N[C@@H](Cc1c[nH]c2ccccc12)C(=O)N[C@@H](C)C(=O)N[C@@H](CCCNC(=N)N)C(=O)N[C@@H](Cc1ccc(O)cc1)C(=O)N[C@@H](C)C(=O)N[C@@H](CC(=O)O)C(=O)N[C@@H](Cc1c[nH]c2ccccc12)C(=O)N[C@@H](CC(C)C)C(=O)N[C@@H](Cc1ccccc1)C(=O)N[C@H](C(=O)N[C@H](C(=O)N1CCC[C@H]1C(=O)N[C@@H](CC(C)C)C(=O)N[C@@H](CC(C)C)C(=O)N[C@@H](CC(C)C)C(=O)N[C@@H](CC(C)C)C(=O)N[C@@H](CC(=O)O)C(=O)N[C@@H](CC(C)C)C(=O)N[C@@H](C)C(=O)N[C@@H](CC(C)C)C(=O)N[C@@H](CC(C)C)C(=O)N[C@H](C(=O)N[C@@H](CC(=O)O)C(=O)N[C@@H](C)C(=O)N[C@@H](CC(=O)O)C(=O)N[C@@H](CCC(=O)O)C(=O)N[C@@H](CSSC1(COC(=O)N[C@H]2CCc3c(C)c(F)cc4nc5c(c2c34)Cn2c-5cc3c(c2=O)COC(=O)[C@]3(O)CC)CCC1)C(=O)NCC(=O)O)C(C)C)[C@@H](C)O)[C@@H](C)O [Compound 3] (H-AEQNPIYWARYADWLFTTPLLLLDLALLVDADEC(X6)G-OH; N-terminus and C-terminus assumed)
- IC50 (FaDu; FaDu cells, 96 h after addition of drug, read-out: FaDu (IC50)): 5.9 nM
- IC50 (HeLa cells; HeLa cells, 96 h after addition of drug, read-out: HeLa (IC50)): 7.6 nM
- IC50 (HCT116; HCT116 cells, 96 h after addition of drug, read-out: HCT116 (IC50)): 8.33 nM
